Consider 2 molecules from US9867861B2, “Process for the large scale production of fruit cells and treatment of diseases with such cells” (priority 2012, dated 2018).

The nature of series [1]: Solubility assay of resveratrol sources in water. Particulars: acidified water (pH=2) as well as pH 7.0. The series is classed as physicochemical.
For series [2], the system named is carrageenan induced rat paw edema. To be noted: resveratrol 50 mg/kg body weight before carrageenan; Gentilli et al (2001); cited from earlier work.
Series [3] shares this test system. The experiment in a line: Carrageenan induced rat paw edema, paw volume measurements. The series is classed as in vivo. To be noted: indomethacin 2 mg/kg 2 h before carrageenan; vs vehicle control. An excerpt:
The aim of the present study was to evaluate the in vivo anti-inflammatory activity of RGC (Red Grape Cells) made according to the large scale process of the invention in an acute inflammation model in rats so as to verify the efficiency of the cells produced according to the invention. One of the experimental model most widely used to study acute inflammation in rodents is that based on the intraplantar administration of carrageenan. The study assessed the efficacy of the RGC by two methods: • 1. Paw volume measurements • 2. […] The rats in all groups were injected with 1% carrageenan (0.1 mg/paw) or sterile saline (0.9% NaCl) into the sub plantar tissue of left hind paw of each rat. • The Following Tests were Performed: • Paw Volumes Measurements • Carrageenan injected paw volumes were measured hourly just before carrageenan injection 0 and 1, 2, 4 hours after injection using caliper. • The paw dimensions were measured in two axes and paw volume was calculated. Paw edema volume in this model was an indication of the inflammation severity. • For each time point, the change in paw volume was calculated either by subtracting the baseline paw volume or as % of baseline paw volume. […]

In series [4] the test system is carrageenan-induced hind paw inflammation (hyperalgesia). The experiment in a line: Hot plate method, inflammatory nociception in freely moving rats after carrageenan. It is filed as in vivo, rat. To be noted: indomethacin 2 mg/kg, vs vehicle control. As to the method: The study assessed the efficacy of the RGC by two methods: • 1. Paw volume measurements • 2. Inflammatory nociception in freely moving rats Materials and Methods: Red Grape Cells (RGC) prepared according to example 1. • RGC was administered orally at dose of 400 mg/kg body weight (2 ml/40 mg) as a suspension in sterile drinking water, 2 h before carrageenan injection. • RGC Composition: […] Rats were divided into three groups of eight rats in each group. The rats in all groups were injected with 1% carrageenan (0.1 mg/paw) or sterile saline (0.9% NaCl) into the sub plantar tissue of left hind paw of each rat. • The Following Tests were Performed: • Paw Volumes Measurements • Carrageenan injected paw volumes were measured hourly just before carrageenan injection 0 and 1, 2, 4 hours after injection using caliper. • The paw dimensions were measured in two axes and paw volume was calculated. Paw edema volume in this model was an indication of the inflammation severity. • For each time point, the change in paw volume was calculated either by subtracting the baseline paw volume or as % of baseline paw volume. Hot Plate Method for Measuring Inflammatory Nociception in Freely Moving Rats The hot plate method was used to determine inflammatory nociception in freely moving rates. […]

Consider `Oc1ccc(/C=C/c2cc(O)cc(O)c2)cc1` [Synthetic-RES, trans-3,5,4′-trihydroxystilbene], for which the “Dissolution of RES in water, percentage compared to dissolution in 80% methanol” value in series [1] came to 7%. In addition, in series [2], the Paw edema result is recorded as “failed to reduce paw edema”.

As for `COc1ccc2c(c1)c(CC(=O)O)c(C)n2C(=O)c1ccc(Cl)cc1` [indomethacin], the “Paw edema (volume %)” value in series [3] is “statistically significant difference at 2 and 4 h”. In addition, the “Hot plate latency, % from baseline” value in series [4] is “statistically significant difference at 2 and 4 h”. The “Hot plate latency delta, baseline-actual time” value in series [4] (2 and 4 h) was “significant decrease in the latency delta”.
